Assay results reported in article PMC5394417, “Investigating the molecular mechanism of positive and negative allosteric modulators in the calcium-sensing receptor dimer” (Scientific Reports, 2017).

Biological target: T1, HA-I841A CaSR mutant (Rattus norvegicus, UniProt P48442, I841A)
T1 construct: mGluR5 signal peptide (N); expressed in transfected cells; host or cells: HEK293T
T1 sequence (P48442 20-1079 I841A): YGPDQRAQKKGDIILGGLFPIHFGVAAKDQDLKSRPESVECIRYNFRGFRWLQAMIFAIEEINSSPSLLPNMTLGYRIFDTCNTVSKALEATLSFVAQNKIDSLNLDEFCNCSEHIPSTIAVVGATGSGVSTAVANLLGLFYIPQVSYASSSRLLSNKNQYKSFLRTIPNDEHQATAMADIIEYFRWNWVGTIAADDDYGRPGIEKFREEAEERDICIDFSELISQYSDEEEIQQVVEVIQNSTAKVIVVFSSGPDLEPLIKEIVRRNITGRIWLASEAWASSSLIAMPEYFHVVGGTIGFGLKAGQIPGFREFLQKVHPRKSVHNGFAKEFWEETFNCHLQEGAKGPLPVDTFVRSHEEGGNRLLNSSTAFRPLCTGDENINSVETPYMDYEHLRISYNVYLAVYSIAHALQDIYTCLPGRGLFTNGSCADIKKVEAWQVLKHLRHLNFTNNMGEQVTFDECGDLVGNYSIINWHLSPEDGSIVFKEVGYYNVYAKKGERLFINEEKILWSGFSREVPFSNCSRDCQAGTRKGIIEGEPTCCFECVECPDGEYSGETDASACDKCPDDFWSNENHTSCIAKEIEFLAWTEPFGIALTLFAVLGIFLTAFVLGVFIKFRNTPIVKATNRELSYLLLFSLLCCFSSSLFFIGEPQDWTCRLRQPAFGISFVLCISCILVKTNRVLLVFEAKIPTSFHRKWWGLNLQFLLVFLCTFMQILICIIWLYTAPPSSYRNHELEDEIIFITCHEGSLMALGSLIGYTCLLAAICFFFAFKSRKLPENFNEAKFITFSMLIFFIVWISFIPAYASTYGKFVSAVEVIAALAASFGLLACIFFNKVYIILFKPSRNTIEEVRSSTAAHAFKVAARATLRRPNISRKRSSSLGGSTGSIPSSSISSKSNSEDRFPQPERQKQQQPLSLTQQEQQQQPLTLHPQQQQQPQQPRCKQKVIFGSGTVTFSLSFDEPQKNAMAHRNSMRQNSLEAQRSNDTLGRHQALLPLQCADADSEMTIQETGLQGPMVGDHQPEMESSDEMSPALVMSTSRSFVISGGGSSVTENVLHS
Assay: IP-One assay, HEK293T transiently transfected
Assay type: cell-based

[Ca+2] [Ca^2+]
EC50 (Ca^2+ alone): 2.59 mM
pEC50 ± S.E.M. (Ca^2+ alone): 2.59 ± 0.01
Max ± S.E.M. (Ca^2+ alone, normalized to maximum response of WT CaSR): 81 ± 14%
EC50 (Ca^2+ with 1 μM NPS R-568): 3.68 mM
Max ± S.E.M. (Ca^2+ with 1 μM NPS R-568, normalized to maximum response with Ca^2+ alone for the construct): 99 ± 18%
EC50 (Ca^2+ with 5 μM NPS 2143): 5.29 mM
pEC50 ± S.E.M. (Ca^2+ with 5 μM NPS 2143): 2.28 ± 0.03
Max ± S.E.M. (Ca^2+ with 5 μM NPS 2143, normalized to maximum response with Ca^2+ alone for the construct): 97 ± 7.6%
